# Assay results: patent US20030044413A1, “Methods of limiting apoptosis of cells” (Regents of the University of Minnesota, priority 1998, published 2003)
# Experiments:
# [1] = test system: Bax; assay: Western blot, liver of bile acid fed rats: Bax; format: in vivo, rat; conditions: DCA feeding
# Method: Animals and Diets. Male 160-175 g Sprague-Dawley rats (Sprague-Dawley, Indianapolis, Ind.), were maintained on a 12 h light-dark cycle and fed standard laboratory chow ad libitum for 3 days. The animals were then transferred to metabolic cages and fed diets of standard laboratory chow supplemented with either no bile acid or 0.4% (wt/wt) DCA, 0.4% UDCA, or a combination of DCA+UDCA (Bio-Serv, Frenchtown, N.J.). On day 10, the animals were sacrificed by exsanguination under ether anesthesia between 9 a.m. and 11 a.m. The livers were removed, rinsed in normal saline, and flash-frozen in liquid nitrogen until western blot analyses of apoptosis-related proteins were performed. All animals received humane care in compliance with the Guide for the Care and Use of Laboratory Animals, prepared by the National Academy of Sciences (NIH Publication No. 86-23, revised 1985).
# Western Blot Analysis. Cytoplasmic proteins were isolated from rat liver tissue as described previously (Trembley et al., Cell Growth & Differ., 7, 903-916 (1996)). […] Cytoplasmic and mitochondrial protein concentrations were determined using the Bio-Rad protein assay (Bio-Rad Laboratories). […]
# Densitometry. […] Quantitation of the autoradiograms was performed using the NIH Image 1.4 densitometric analysis program.
# [2] = test system: Bad; assay: Western blot, liver of bile acid fed rats: Bad; format: in vivo, rat; conditions: bile acid feeding
# Method: Video densitometry was accomplished using a Macintosh II (Apple Computer, Cupertino, Calif.) coupled to a Data Translation DT2255 video digitizer (Data Translation, Marlboro, Mass.) and a JVC GX-N8 video camera (JVC Corporation of America, Elmwood Park, N.J.) as described previously (Kren et al., J. Cell Biol., 123, 707-718 (1993)). Quantitation of the autoradiograms was performed using the NIH Image 1.4 densitometric analysis program.
compound,measurement,setting,value
"C[C@H](CCC(=O)O)[C@H]1CC[C@H]2[C@@H]3CC[C@@H]4C[C@H](O)CC[C@]4(C)[C@H]3C[C@H](O)[C@]12C [DCA, deoxycholic acid]",increase in mitochondrial-associated Bax,[1],4.5 fold
same,"cytoplasmic Bad expression, increase",[2],approximately 2 fold
